Test results reported in US7935532B2, “DWF4 polynucleotides, polypeptides and uses thereof” (Arizona Board of Regents for and on behalf of Arizona State …, priority 1999, dated 2011).

What was measured:
Assay type in all cases: in vivo, Arabidopsis thaliana
[1] = system: wild-type and dwf4 seedlings; assay: Auxin response of seedlings on vertically oriented agar plates with 2,4-D
Experimental: (§1) Gibberellic acid (GA) response was assayed on plants grown individually in 5.7-cm pots. Once inflorescences reached 1 to 2 mm in height, they were sprayed weekly with 1 mM GA3 (Sigma). Control plants were sprayed with water. One week after the third spraying, plants were collected, and the length of the main stem was measured between the top of the rosette and the base of the most distal pedicel; 13 to 18 plants of each line were measured per treatment. Auxin response was tested by growing seedlings for 10 days under 16 hr of light on vertically oriented agar plates containing various concentrations of 2,4-D (Gibco, Grand Island, N.Y.). Genetic interaction with the hy2 mutation was tested by growing seedlings under continuous light for 7 days. Brassinolide (BL) response was determined in liquid culture, as described by Clouse et al. (1993) supra, except that three or four seedlings were grown in each well of a 24-well culture plate for 7 days. Measurements were taken for 10 to 20 seedlings for each genotype and condition, under a dissection microscope fitted with an ocular micrometer.
Auxin can also stimulate cell elongation. This effect is especially visible in young seedlings (Klee and Estelle, supra). […] Higher concentrations of auxin were inhibitory for both wild-type and dwf4 seedlings, and lower concentrations had no effect. In view of the inhibition of root growth, it is clear that dwf4 is not auxin resistant; rather, its elongation response is compromised.

dwf4 seedlings = assay: Feeding of BR biosynthetic intermediates to dwf4 seedlings in liquid media (rescue, dose-response); details: for rescue of the light-grown dwf4 phenotype: liquid media; for response of dwf4 seedlings in dose-response experiment in the dark: dark-grown, 6-oxoCN 10^−8 to 3×10^−6 M, 6-deoxoCT high concentrations
Experimental: In view of the results described above, we hypothesized that DWF4 mediates one or more of several steroid hydroxylation steps in the BR biosynthetic pathway. To test this, dwf4 was grown on all of the available biosynthetic intermediates in the BR biosynthetic pathways and examined to ascertain which intermediates could rescue the dwarf phenotype. In addition to the intermediates belonging to the early C-6 oxidation and late C-6 oxidation pathways (Choi et al. (1997), supra), 22α-hydroxycampesterol (22-OHCR), 6α-hydroxycastasterone (6-OHCT) (Takatsuto et al. (1997) J. Chem. Res. (synop.) 11:418-419), and […] (S. Takatsuto, T. Watanabe, T. Noguchi, and S. Fujioka, unpublished data) were synthesized and tested.
Germinated seedlings were transferred to media supplemented with one of the intermediates or BL to pinpoint the step catalyzed by DWF4. […] In addition, the rescued seedlings were less green than the dwarfs. These experiments were conducted in liquid media. Feeding experiments performed in the dark yielded similar results.
However, on CT the overall morphology of dwf4 was essentially rescued to wild-type phenotype at 3×10^−7 M and higher, whereas with 6-deoxoCT, rescue occurred with as little as 10^−7 M and may have even been inhibitory at higher concentrations. Of particular interest is the more dramatic response of the epicotyls versus the smaller response of the hypocotyls to CT. This same phenomenon was true for seedlings treated with >10^−7 M 6-deoxoCT.
A higher concentration of CT for dark-grown seedlings, compared with light-grown seedlings, 3×10^−6 M (FIG. 5B), was required to convert the hypocotyl to a length similar to that of the wild type.

6-week-old dwf4 plants = assay: Treatment of soil-grown mature dwf4 plants with BR intermediates and BL (pedicel elongation); details: 10^−6 M, compared with CT and TE at 10^−5 M
Experimental: To determine whether the results of the seedling feeding experiments could be applicable to soil-grown mature plants, 6-week-old dwf4 plants were treated with BR intermediates and BL. Concentrations of applied intermediates were adjusted empirically to optimize responses. Consistent with the results obtained from the seedlings experiments, only 22α-hydroxylated compounds can rescue the dwf4 phenotype. The elongation response was only observed in the young tissues of the inflorescence, regardless of whether the BRs were applied locally or sprayed over the entire plant. In contrast to the striking elongation of the peduncles and pedicels, fertility was not restored by BR treatment. The sterility in dwf4 is hypothesized to be mechanical, which means that the filaments are shorter than the carpels such that the pollen is shed onto the ovary walls rather than onto the stigmatic surface. In fact, if dwf4 plants are hand pollinated using […], fertility increases.

DWF4 promoter (D4GL) = assay: DWF4-promoter:GUS (D4GL) activity in seedlings supplied with hormone
From the text: Two promoter constructs were used for the DWF4-promoter:GUS(D4G) analysis. For promoter fusions, polymerase chain reaction (PCR) products spanning 1.1 kb DNA upstream of the translation initiation site were amplified using primers D4XLINIT (5′-[…]-3′) (SEQ ID NO:16) and a T7 primer (5′[…]-3′) (SEQ ID NO:17). For template for PCR, a DWF4 genomic clone subcloned into pBluescript SK-vector (Stratagene La Jolla, Calif.) was used as described herein. The PCR products were restricted with SalI and BamHI, and ligated into the same restriction site of a promoterless GUS vectors pBI101; this 1.1 kb promoter:GUS construct as named pD4GL. For the pD4GS construct, pD4GL was digested with HindIII, the small restriction fragment was removed, and the remaining vector with the partial promoter was self-ligated. The constructs were introduced into Agrobacterium strain GV3101 through electroporation.
For histochemical analysis of the D4GL plants, seeds were plated on M&S plates and grown in the dark and light. Seedlings were harvested at the designated dates and stained overnight using a substrate mixture (0.1 M NaPO4, pH 7, 10 mM EDTA, 0.5 mM K3Fe(CN)6, 0.5 mM K4FE(CN)6, 1 mM X-glucuronide, and 0.1% Triton X-100). Seedlings cleared with 90% ethanol were rehydrated before taking pictures using a Stemi SV11 dissecting microscope (Zeiss, N.Y.).
Since DWF4 is proposed to be a key enzyme in the BR biosynthetic pathway, DWF4 transcription could be regulated by an end-product feedback mechanism. To this end, D4GL was expressed in different genetic backgrounds including two BR deficient mutants, dwf7-1 and dwf8-1, and a BR-enriched line, AOD4. GUS activity was increased in dwf7-1 and dwf8-1 but decreased in AOD4 lines. DWF7 is a C-5 desaturase that acts in the sterol specific part of the pathway. D4GL activity in dwf7-1 was found in the same tissues as wild type but, dwf8-1 is defective in a BR biosynthetic step downstream of CPD. […]

[2] = system: wild-type and dwf4 plants; assay: GA response of soil-grown plants sprayed with GA (inflorescence stem length)
Experimental: as §1
Of the endogenous (hormonal) signals that might be deficient in dwarf plants, an obvious candidate is GA, because gibberellin-deficient mutants are shorter in stature than are the wild-type plants (Koommeef and Van der Veen, supra). […]

[3] = system: wild-type and dwf4 seedlings; assay: GA response of seedlings germinated on GA (hypocotyl elongation)
Experimental: The conditions used for plant growth were essentially as described previously (Feldmann (1991) Plant J. 1:71-82; Forsthoefel et al. (1992) Aust. J. Plant Physiol. 19:353-366), except that agar-solidified medium contained 0.5% sucrose. Seedlings up to 2 weeks of age ([…] of age for dark-growth experiments) were grown on 0.9% agar-solidified medium containing 1×Murashige and Skoog 1962 salts (Murashige, T., and Skoog, F. (1962) Physiol. Plant, 15:473-497) and 0.5% sucrose (w/v) and cold treated (4° C.) for 2 days in the dark before transfer to the light (24 hr light; 80 μmol M^−2 sec^−1); older plants were grown in potting soil. The plates were sealed with Parafilm (American National Can Co., Chicago, Ill.) for the entire experiment. For nucleic acid extraction, genetic analysis, and other experiments in which mature plants were required, seeds were sown on Metromix 350 (Grace Sierra, Milpitas, Calif.) presoaked with distilled water. The pots were covered with plastic wrap and cold treated (4° C.) for two days before transfer to a growth chamber (16:8, light [240 μmol m^−2 sec^−1]:dark; 22 and 21° C., respectively, and 75 to 90% humidity). The plastic wrap was removed 5 days after germination, and the pots were subirrigated in distilled water as required. Germination of seeds for dark growth experiments was induced by overnight exposure of the seeds to light immediately after removing the plates from incubation at 4° C. The dwf4-1 and dwf4-2 mutations were in the Arabidopsis thaliana ecotype Wassilewskija (Ws-2) background; the dwf4-3 and dwf4-4 mutations were in the Enkheim (En-2) background.
Of the endogenous (hormonal) signals that might be deficient in dwarf plants, an obvious candidate is GA, because gibberellin-deficient mutants are shorter in stature than are the wild-type plants (Koommeef and Van der Veen, supra). Our results, however, indicate that dwf4 is not defective in the synthesis of gibberellins. […] Similar results were obtained when soil-grown plants were sprayed with 1 mM GA once inflorescences first became visible: dwf4 inflorescence stems elongated by only 28% above the untreated controls, whereas those of the wild type elongated by 45% above the untreated controls. Mutants that owe their reduced stature to decreased levels of endogenous gibberellins can be fully rescued by added hormone (Koornneef and Van der Veen, supra; Talon et al., supra). In addition, dwf4 seeds germinate in the absence of exogenously supplied GA.

wild-type seedlings = assay: Hypocotyl and root length of wild-type seedlings supplemented with epi-BL; details: light-grown wild type, 10^−6 M epi-BL, 12 days
Experimental: To compare the phenotypic effects resulting form the endogenous and exogenous addition of BRs, the length of roots and hypocotyls of 16 seedlings of dwf4, wild-type controls, wild-type plants supplemented with 10^−6 M epi-BL, and two independent AOD4 lines, grown for 12 days in the light or dark was measured. […] These characteristic responses of wild-type plants to epi-BL treatment were similar in two independent AOD4 lines. […] Inhibition of root growth was also obvious in the AOD4 lines. Furthermore the increased hypocotyl length and reduced root length were consistently observed in 15 independent transformants of tobacco (TOD4) harboring a pOD4 construct.

[4] = light-grown seedlings, dose-response

## O=C(O)COc1ccc(Cl)cc1Cl [2,4-D]
[1]; concentrations lower than 10^−8 M
  hypocotyl elongation: no effect
[1]; wild-type and dwf4 seedlings, 10 days, all concentrations assayed
  root growth: inhibition of root growth was evident
[1]; wild-type and dwf4 seedlings, concentrations higher than 10^−8 M
  hypocotyl elongation: inhibitory

## CC(C)[C@H](C)[C@@H](O)[C@H](O)[C@@H](C)[C@H]1CC[C@H]2[C@@H]3C[C@H](O)[C@H]4C[C@H](O)[C@H](O)C[C@]4(C)[C@H]3CC[C@]12C [6-OHCT, 6α-hydroxycastasterone]
dwf4 seedlings; light-grown seedlings
  rescue of the light-grown dwf4 phenotype: rescued

## CC(C)[C@H](C)C[C@H](O)[C@@H](C)[C@H]1CC[C@H]2[C@@H]3CC[C@H]4C[C@@H](O)CC[C@]4(C)[C@H]3CC[C@]12C [6-deoxoCT, 6-deoxocathasterone]
dwf4 seedlings
  response of dwf4 seedlings in dose-response experiment in the dark: caused dramatic elongation but were less effective at rescuing dwf4 hypocotyls to wild-type phenotype
dwf4 seedlings; [4]
  concentration at which dwf4 overall morphology is rescued to wild-type phenotype: ≥ 10^−7 M
  concentrations at which seedlings displayed inhibition in hypocotyl and root elongation and cotyledon and leaf expansion: > 10^−7 M
dwf4 seedlings; light-grown seedlings
  rescue of the light-grown dwf4 phenotype: rescued
6-week-old dwf4 plants
  sensitivity of dwf4 pedicels: more sensitive

## CC(C)[C@H](C)[C@@H](O)[C@H](O)[C@@H](C)[C@H]1CC[C@H]2[C@@H]3CC[C@H]4C[C@@H](O)CC[C@]4(C)[C@H]3CC[C@]12C [6-deoxoTE, 6-deoxoteasterone]
6-week-old dwf4 plants
  sensitivity of dwf4 pedicels: more sensitive

## CC(C)[C@H](C)CC[C@@H](C)[C@H]1CC[C@H]2[C@@H]3CC(=O)[C@H]4C[C@@H](O)CC[C@]4(C)[C@H]3CC[C@]12C [6-oxoCN, 6-oxocampestanol]
dwf4 seedlings
  response of dwf4 seedlings in dose-response experiment in the dark: failed to respond
dwf4 seedlings; light-grown, even at high concentrations (3×10^−6 M)
  response of dwf4 seedlings in dose-response test: failed to respond

## C=C1C[C@]23C[C@@]1(O)CC[C@H]2[C@@]12C=C[C@H](O)[C@@](C)(C(=O)O1)[C@H]2[C@@H]3C(=O)O [GA, Gibberellic acid]
DWF4 promoter (D4GL); 10^−4 M GA3
  GUS staining in shoots and roots of D4GL plants: did not display an increase in GUS staining
  hypocotyl length of D4GL plants: longer than controls
[2]; dwf4, soil-grown plants sprayed with 1 mM GA
  inflorescence stem elongation above the untreated controls: 28%
[2]; wild type, soil-grown plants sprayed with 1 mM GA
  inflorescence stem elongation above the untreated controls: 45%
[3]; dwf4 seedlings germinated on 10^−5 M GA
  hypocotyl elongation response to GA: responded minimally, if at all
[3]; dwf4 seedlings, 10^−4 M compared with 10^−5 M GA
  hypocotyl elongation response to GA: essentially saturated for elongation
[3]; wild-type seedlings at 10^−4 M GA
  hypocotyl elongation response to GA: elongated slightly more than at 10^−5 M
[3]; wild-type seedlings germinated on 10^−5 M GA
  hypocotyl elongation response to GA: demonstrated an elongation response

## CC(C)[C@@H](C)[C@@H](O)[C@H](O)[C@@H](C)[C@H]1CC[C@H]2[C@@H]3COC(=O)[C@H]4C[C@H](O)[C@H](O)C[C@]4(C)[C@H]3CC[C@]12C [epi-BL, 24-epibrassinolide]
DWF4 promoter (D4GL); 10^−6 M epi-BL, tissues normally stained in untreated controls
  GUS activity of D4GL plants: greatly reduced GUS activity
wild-type seedlings
  hypocotyl length: elongated hypocotyls
  root length: shorter than untreated control plants
